Results on seven molecules are retold here after US6900193B1, “Structural modification of 19-norprogesterone I: 17-α-substituted-11-β-substituted-4-aryl and 21-substituted 19-norpregnadienedione as new antiprogestational agents” (The United States of America as represented by the …, priority 1996, dated 2005).

Data set [1] in a line: Lability to base under reverse-phase HPLC conditions. The data set is classed as physicochemical. Conditions: MeOH/H2O/Et3N reverse-phase conditions; converts to compound 8, also at pH 7.0. The method, then: Under nitrogen, a mixture of the crude ethoxyethylidenedioxy compound (18, 0.56 g., 1.11 mmol), 0.2 M NaOAc (3 mL, […]) in methanol (30 mL) was heated to reflux. Monitoring by TLC (5% acetone/CH2Cl2) indicated a complete reaction in 3.5 hours. The methanol was removed in vacuo under a stream of nitrogen, the residue diluted with water (˜50 mL) and extracted with CH2Cl2 (3×). The organic fractions were combined, washed with H2O (2×) and brine (1×), dried over Na2SO4, filtered and concentrated in vacuo to give 0.56 g of the crude 21-ol, 17α-acetate (41) as a foam. Purification of this material via flash chromatography (7.5% acetone/CH2Cl2) followed by trituration with ether/pentane gave 0.32 g of the target compound, 21-OH, 17α-acetate as an off-white solid in […]; m.p.=205-210° C. The NMR indicated this product contains 5.3% of the 17α-OH, 21-OAc (8) isomer as a contaminant. […] This transesterification occurs at an appreciate rate even when the solvent system is buffered at pH 7.0 with phosphoric acid. The purity of the acetate mixture (8 and 41) was ascertained at >99% by normal phase HPLC analysis (Waters Associates μPorasil Silica using CH3CN/CH2Cl2 (40:60) with a flow rate of 2 mL/min at λ=302 nm). […] The presence of the 17α-OH, 21-OAc isomer (8) to the extent of 5.3% could be detected by the appearance of two doublets, one at 4.88 and the other at 5.11, both with J=18.3 Hz.

Data set [2] has as its system ovulation. Conditions: Dao, et al.; cited from earlier work.
For data set [3] the following is noted: in vivo.
In data set [4] the target is T1, human isoform A progesterone receptor (Homo sapiens, UniProt P06401).
T1 sequence (P06401 1-769 isoform P06401-2): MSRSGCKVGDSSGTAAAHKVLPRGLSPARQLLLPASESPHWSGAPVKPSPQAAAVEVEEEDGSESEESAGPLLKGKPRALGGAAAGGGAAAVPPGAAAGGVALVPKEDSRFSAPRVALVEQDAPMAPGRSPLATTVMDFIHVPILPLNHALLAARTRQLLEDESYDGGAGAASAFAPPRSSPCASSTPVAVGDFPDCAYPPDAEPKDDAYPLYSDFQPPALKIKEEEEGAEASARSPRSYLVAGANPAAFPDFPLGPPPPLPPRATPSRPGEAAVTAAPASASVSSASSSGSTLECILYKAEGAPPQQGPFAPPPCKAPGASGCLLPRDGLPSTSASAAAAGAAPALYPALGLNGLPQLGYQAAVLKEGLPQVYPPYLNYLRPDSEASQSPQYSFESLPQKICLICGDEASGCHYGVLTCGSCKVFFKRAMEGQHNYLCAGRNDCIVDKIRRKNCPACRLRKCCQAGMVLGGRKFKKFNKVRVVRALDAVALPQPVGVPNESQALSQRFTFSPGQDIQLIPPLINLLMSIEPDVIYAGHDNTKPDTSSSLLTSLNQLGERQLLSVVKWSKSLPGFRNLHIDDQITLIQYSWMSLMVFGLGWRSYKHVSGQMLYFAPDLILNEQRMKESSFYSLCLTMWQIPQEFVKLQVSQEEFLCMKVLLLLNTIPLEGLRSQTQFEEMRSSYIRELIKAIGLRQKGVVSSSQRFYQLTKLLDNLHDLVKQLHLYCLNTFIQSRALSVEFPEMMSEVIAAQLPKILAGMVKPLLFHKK
Kind of data set: Relative binding affinity, human isoform A progesterone receptor. Conditions: for BINDING AFFINITY Progester, figure in ( ): relative binding affinity of the human isoform A progesterone receptor: Table 2, figure in parentheses.

Data set [5] has as its system ovulation. Kind of data set: Antiovulatory test. The data set is classed as in vivo, rat. The conditions noted are these: for Antiovulatory MED100: oral, rat, single dose at noon on day of proestrus. The method, then: Antiovulatory Test […] female rats of the Sprague-Dawley strain weighing 200 to 250 g were maintained under standard laboratory conditions, 14 hours of light and 10 hours of darkness each day. Vaginal washings were obtained daily and evaluated microscopically to establish the estrous cycle of each animal. […] Each dose group consisted of eight rats and one group served as the vehicle control. Animals were dosed at noon on the day of proestrus and sacrificed 24 hours later when ova can usually be visualized in the distended ampulla of the oviduct using a dissecting microscope. The oviducts were excised, an incision made in the distended ampulla and the ova teased out in a drop of water on a microscope slide so that the number shed could be counted. Historically, control animals shed between 12 and 14 ova during each estrous cycle.

Data set [6] relates to pregnancy (number and condition of conceptuses). Kind of data set: Postcoital test. Format: in vivo, rat. Conditions: oral; for Postcoital MED100: rat, days 0-3; for postcoital contraceptive activity relative to the standard, in words: days 0-3 of gestation, versus 69B.
In data set [7] the test system is follicular development, ovulation, endometrial maturation. Kind of data set: Single oral dose in human subjects (unpublished data). Format: in vivo.
The subject of data set [8] is implantation. The conditions noted are these: guinea pig; cited from earlier work.
Data set [9] relates to implantation. Conditions: man; cited from earlier work.
Data set [10] relates to early stages of pregnancy. The conditions noted are these: administered during the early stages of pregnancy; cited from earlier work.
Data set [11] relates to implantation. Conditions: rat; cited from earlier work.
In data set [12] the test system is ovulation. The conditions noted are these: Baulieu, et al.; cited from earlier work.
Data set [13] concerns estrogen-insensitive T47Dco human breast cancer cells. The conditions noted are these: Horwitz 1985; cited from earlier work.
Data set [14] deals with Cushing's syndrome. The conditions noted are these: cited from earlier work.

Entries after “also recorded” stand apart in the source; their conditions may differ. Where two headings read alike, the source gives them in different places.

As to `CC(=O)O[C@]1(C(=O)CO)CCC2C3CCC4=CC(=O)CCC4=C3C(c3ccc(N(C)C)cc3)C[C@@]21C` (stereo partly drawn) [Compound 41, 17α-acetoxy-21-hydroxy-11β-[4-(N,N-dimethylamino)phenyl]-19-norpregna-4,9-diene-3,20-dione], the stability to base entry in data set [1] is “extremely labile to base”.
For `CC(=O)O[C@]1(C(C)=O)CC[C@H]2[C@@H]3CCC4=CC(=O)CCC4=C3[C@@H](c3ccc(N(C)C)cc3)C[C@@]21C` [Compound 69B, 17α-acetoxy-11β-(4-N,N-dimethylaminophenyl)-19-norpregna-4,9-diene-3,20-dione, reference compound], in data set [2], the “inhibition of ovulation in the rat” value is given as “inhibit ovulation”. In data set [3], the “blood levels following oral administration” value is recorded as “Higher blood levels”. The “BINDING AFFINITY Progester, figure in ( ): relative binding affinity of the human isoform A progesterone receptor” value in [4] is 234. Further, the “Antiovulatory MED100” value in data set [5] is listed as 1 mg. For the same molecule, the “Postcoital MED100” value in data set [6] was 2 mg/day. For the same molecule, the “effect in human subjects following a single oral dose” value in [7] was “affect both follicular development and ovulation as well as endometrial maturation”.
As for `CC(=O)O[C@]1(C(C)=O)CC[C@H]2[C@@H]3CCC4=CC(=O)CCC4=C3[C@@H](c3ccc(N4CCCCC4)cc3)C[C@@]21C` [Compound 71, 17α-Acetoxy-11β-[4(N-Piperidino)phenyl]-19-norpregna-4,9-diene-3,20-dione], in [4], the “BINDING AFFINITY Progester, figure in ( ): relative binding affinity of the human isoform A progesterone receptor” value turned out to be 203. Besides, the “Antiovulatory MED100” value in [5] is on record as >16 mg. For the same molecule, in data set [5] (percent of the activity of 69B), the “antiovulatory activity relative to the standard” value was “about 5%”. In addition, the “dose level at which not fully active, antiovulatory” value in data set [5] (versus 69B) is > 16 times the MED100 for the standard. Besides, in data set [6], the “postcoital contraceptive activity relative to the standard, in words” value was “about four times the postcoital contraceptive activity of the standard; also recorded: four times as potent as the standard” and the “Postcoital MED100” value came to 0.5 mg/day.
As to `CC(=O)OCC(=O)[C@@]1(OC(C)=O)CC[C@H]2[C@@H]3CCC4=CC(=O)CCC4=C3[C@@H](c3ccc(C(C)=O)cc3)C[C@@]21C` [Compound 106b, 17α,21-Diacetoxy-11β-(4-acetylphenyl)19-norpregna-4,9-diene-3,20-dione], the “BINDING AFFINITY Progester, figure in ( ): relative binding affinity of the human isoform A progesterone receptor” value in [4] came to 172.
Regarding `COCC(=O)[C@@]1(OC)CC[C@H]2[C@@H]3CCC4=CC(=O)CCC4=C3[C@@H](c3ccc(N(C)C)cc3)C[C@@]21C` [Compound 113a, 17α,21-Dimethoxy-11β-[4-(N,N-dimethylamino)phenyl]-19-norpregna-4,9-diene-3,20-dione], in [4], the “binding affinity for the human progesterone receptor (isoform A), in words” value is recorded as “high binding affinity” and the “BINDING AFFINITY Progester, figure in ( ): relative binding affinity of the human isoform A progesterone receptor” value worked out at 237. The “postcoital contraceptive activity relative to the standard, in words” value in data set [6] is given as “about half as effective as compound 69B”.
In the case of `COCC(=O)C1(OC(C)=O)CCC2C3CCC4=CC(=O)CCC4=C3C(c3ccc(N4CCCCC4)cc3)CC21C` (stereo not drawn) [Compound 123a, 17α-Acetoxy-1113-[4-(N-piperidino)phenyl]-21-methoxy-19-norpregna-4,9-diene-3,20-dione], in data set [4], the “BINDING AFFINITY Progester, figure in ( ): relative binding affinity of the human isoform A progesterone receptor” value is on record as 140.
Regarding `CC#C[C@]1(O)CC[C@H]2[C@@H]3CCC4=CC(=O)CCC4=C3[C@@H](c3ccc(N(C)C)cc3)C[C@@]21C` [mifepristone], in [2], the “inhibition of ovulation in the rat” value is on record as “inhibit ovulation”. In addition, the prevention of implantation entry in data set [8], in data set [9] and in [11] was “prevent implantation” in each case. Further, the antiprogestational/contragestative effect entry in data set [10] is listed as “effective antiprogestational/contragestative agent”. In addition, the “effect on ovulation in human subjects” value in data set [12] is reported as “affect ovulation”. The “growth inhibition of T47Dco human breast cancer cells” value in data set [13] is listed as “growth-inhibitory properties”. Besides, in data set [14] (Nieman, et al. 1985), the “treatment of Cushing's syndrome” value is on record as “successfully used”. Moreover, in data set [14] (in vivo), the antiglucocorticoid activity result was “very significant antiglucocorticoid activity”.
